# Reference: patent US20200254026A1, “AGENT FOR PROMOTING MIGRATION OF PLURIPOTENT STEM CELLS” (NIPPON ZOKI PHARMACEUTICAL CO., LTD., priority 2015, published 2020)
# Tested on: Muse cells (SSEA-3-positive cells)
# Test: Cell mobility analysis (EZ-TAXIScan), chemotactic ability of Muse cells
# Type: cell-based
# Conditions: SSEA-3-positive cells from human bone marrow mesenchymal stem cells; 2 μM S1P as positive control; photographed every 10 minutes
# Method: Mesenchymal stem cells derived from human bone marrow in a concentration of 1×10^7 cells/mL were prepared using an FACS buffer containing Dulbecco PBS, 0.5% bovine serum albumin, and 2 mM EDTA (ethylenediaminetetraacetic acid). Thereto, an anti-SSEA-3 antibody (diluted 400 times) was added as a primary antibody. Reaction was allowed to proceed on ice for 1 hour while being suspended at appropriate times, followed by centrifugation for supernatant removal. Then, the addition and removal of an FACS buffer were repeated three times for rinsing. Thereto, an FITC-labeled anti-rat-IgM antibody (diluted 100 times) was added as a secondary antibody. Subsequently, in the same manner as above, reaction was allowed to proceed on ice for 1 hour and then addition and removal of an FACS buffer were repeated three times for rinsing. SSEA-3-positive cells were separated by FACS the day before measurement, followed by overnight culturing under conditions of 37° C. and 5% CO2. […] The resulting cell suspension was injected into each well of an EZ-[…] (registered trademark; the same applies hereinafter) holder chamber (GE Healthcare), and the cells were aligned properly in front of a terrace by a water-level difference method. […] The EZ-[…] holder chamber was placed in an incubator under conditions of 37° C. and 5% CO2. […]
smiles,measurement,value
"CCCCCCCCCCCCC/C=C/[C@@H](O)[C@@H](N)COP(=O)(O)O [S1P, sphingosine-1-phosphate]",movement of Muse cells (chemotactic ability with time),same movement of Muse cells was observed
